How the values were obtained:
HCT116-(CA)13 cells [1] = assay: REDOX library screen by high-content microscopy (MSI frequency and cell numbers); format: cell-based, human; details: 1 μM oxaliplatin, additional concentrations, 3-day co-treatment, 3-day recovery
Description: The REDOX library (Cat# BML-2835, ENZO, USA) is composed of 84 compounds that were supplied at 10 mM in DMSO. HCT116-(CA)13 cells were seeded at 1×10^4 cells per well in 96-well glass plates containing 100 μl growth medium. One day after seeding, the cells were co-treated with 1 μM oxaliplatin and an antioxidant at specified concentrations in triplicate for three days, followed by a 3-day recovery in fresh growth medium without the drug and antioxidants.

HCT116-(CA)13 cells [2] = details: for suppression of methotrexate-induced MSI: 25 nM methotrexate with 2.5 mM NAC, 250 μM vitamin C or 1.5 μM curcumin; for suppression of methotrexate-induced MSI / suppression of CCNU-induced MSI: 5 mM GSH; for suppression of CCNU-induced MSI: 50 μM CCNU with 2.5 mM NAC, 250 μM vitamin C, 1.5 μM curcumin or 150 μM eugenol
Description: After treatment, HCT116-(CA)13 cells in 96-well glass plates (Corning-Costar®) were fixed with 4% paraformaldehyde and nuclei were stained with 1 μg/ml Hoechst 33258. Fluorescent images of the cells were acquired at 100× magnification by ImageXpress^Micro system (Molecular Devices) and analyzed with MetaXpress® V3.1 software as described previously [Li et al., 2014]. The frequency of frameshift mutations of the (CA)13 microsatellite is expressed as the percentage of the DsRed^+GFP^+Hoechst^+ subpopulation in the GFP^+Hoechst^+ population.

HCT116-(CA)13 cells [3] = assay: Cell viability (MTT assay) with drug and antioxidant co-treatment; details: for effect on methotrexate-mediated cytotoxicity (in words): 25 nM methotrexate with NAC, GSH or vitamin C
Description: Cell viability was determined by the MTT assay. Briefly, the optical density of colored formazan converted from MTT by viable cells was determined as previously described [Chang et al., 2002] at 595 nm with an ELISA reader (Thermo Labsystems). Cell viability is expressed as the optical density value of drug-treated cells relative to that of solvent-treated cells, after subtracting the background from the medium.

[4] = 5 μM etoposide with 250 μM vitamin C

Compound: N#CC(=Cc1ccc(O)c(O)c1)C(=O)OC/C=C/c1ccccc1 (stereo in doubt) [CDC, [(E)-3-phenylprop-2-enyl] (Z)-2-cyano-3-(3,4-dihydroxyphenyl)prop-2-enoate]
- outcome of secondary screen: oxaliplatin-induced MSI and oxaliplatin-mediated cytotoxicity (HCT116-(CA)13 cells [1]): most promising antioxidants

Compound: N[C@@H](CCC(=O)N[C@@H](CS)C(=O)NCC(=O)O)C(=O)O [GSH, glutathione]
- suppression of methotrexate-induced MSI (HCT116-(CA)13 cells [2]): 13%

Compound: CC(=O)N[C@@H](CS)C(=O)O [NAC, N-acetylcysteine]
- effect on methotrexate-mediated cytotoxicity (in words) (HCT116-(CA)13 cells [3]): without affecting drug cytotoxicity
- effect on oxaliplatin-mediated cytotoxicity (in words) (HCT116-(CA)13 cells [3]; 1 μM oxaliplatin with 2.5 mM NAC, 5 mM GSH or 150 μM eugenol): totally abolished
- decrease of CCNU-mediated cytotoxicity (HCT116-(CA)13 cells [3]; 50 μM CCNU with 2.5 mM NAC or 5 mM GSH): approximately 25%
- suppression of methotrexate-induced MSI (HCT116-(CA)13 cells [2]): 34%

Compound: O=c1cc(-c2ccccc2)oc2cc(O)c(O)c(O)c12 [baicalein, 5,6,7-trihydroxy-2-phenylchromen-4-one]
- outcome of secondary screen: oxaliplatin-induced MSI and oxaliplatin-mediated cytotoxicity (HCT116-(CA)13 cells [1]): most promising antioxidants

Compound: Cc1cc(C2CCCCC2)n(O)c(=O)c1 [ciclopirox ethanolamine, 2-aminoethanol;6-cyclohexyl-1-hydroxy-4-methylpyridin-2-one]
- outcome of secondary screen: oxaliplatin-induced MSI and oxaliplatin-mediated cytotoxicity (HCT116-(CA)13 cells [1]): most promising antioxidants

Compound: C=CCc1ccc(O)c(OC)c1 [eugenol]
- suppression of vinblastine-induced MSI (HCT116-(CA)13 cells [2]; 25 nM vinblastine with 150 μM eugenol): 40%
- suppression of CCNU-induced MSI (HCT116-(CA)13 cells [2]): approximately 55%

Compound: CCCCCCCCOC(=O)/C=C/c1ccc(O)c(O)c1 [n-octyl caffeate, Octyl 3-(3,4-dihydroxyphenyl)prop-2-enoate]
- outcome of secondary screen: oxaliplatin-induced MSI and oxaliplatin-mediated cytotoxicity (HCT116-(CA)13 cells [1]): most promising antioxidants

Compound: O=C1O[C@H]([C@@H](O)CO)C(O)=C1O [vitamin C]
- effect on methotrexate-mediated cytotoxicity (in words) (HCT116-(CA)13 cells [3]): without affecting drug cytotoxicity
- enhancement of etoposide-mediated cytotoxicity (HCT116-(CA)13 cells [3]; [4]): ~10%
- effect on CCNU-mediated cytotoxicity (in words) (HCT116-(CA)13 cells [3]; 50 μM CCNU with 250 μM vitamin C): without significantly affecting drug cytotoxicity
- suppression of methotrexate-induced MSI (HCT116-(CA)13 cells [2]): 12%
- suppression of etoposide-induced MSI (HCT116-(CA)13 cells [2]; [4]): ~40%
- suppression of CCNU-induced MSI (HCT116-(CA)13 cells [2]): ~24%

From patent US20160022605A1, “METHODS FOR REDUCING MICROSATELLITE INSTABILITY INDUCED BY CHEMOTHERAPY AND METHODS FOR SCREENING ANTIOXIDANTS THAT SUPPRESS DRUG-INDUCED MICROSATELLITE INSTABILITY WHILE ENHANCING THE CYTOTOXICITY OF CHEMOTHERAPEUTIC AGENTS” (priority 2014, published 2016)
